{"source": "patent US20040072892A1", "about": "“Cyanopyrrolidine derivatives” (priority 2000, published 2004)", "key": {"[1]": {"assay": "Concentration of test drug in blood by oral administration in rats (LC/MS/MS)", "format": "in vivo", "details": "Wistar rats, oral 1 mg/kg; for concentration at 5 min / concentration at 10 min / concentration at 15 min / concentration at 30 min / concentration at 1 h / concentration at 2 h: male, rat, plasma, mean of 2 samples; for concentration at 5 min: 5 min. after administration; for concentration at 10 min: 10 min. after administration; for concentration at 15 min: 15 min. after administration; for concentration at 30 min: 30 min. after administration; for concentration at 1 h: 1 hour after administration; for concentration at 2 h: 2 hours after administration", "experimental": "Experiment 2 [Concentration of Test Drug in Blood by Oral Administration in Rats]\nWistar rats, male (8 weeks old) were used after fasting from the day before the test.\nAt 5, 10, 15, 30 minutes, 1 and 2 hours after the administration, each 0.2 ml of blood was collected from the jugular vein and, after centrifugation, the resulting plasma was used as sample.\nThat is, 50 μl of the plasma was added to 200 μl of acetonitrile, stirred and, after centrifugation, the supernatant was injected to a liquid chromatography wherein CAPCEL PAK C18, UG120 5 μm (150 mm long, 2 mm diameter) was used as a column, a mixture of 10 mM aqueous ammonium acetate solution and 90% aqueous acetonitrile solution (1:9) was used as an eluent, Sciex API3000 LC/MS/MS System (Perkin Elmer Sciex) was used as a MS/MS condition, ESI was used as an ionization method, and cation, and SRM (precursor ion and daughter ion) was used for monitoring."}, "[2]": {"biological_target": "dipeptidyl peptidase IV (DPP IV) (Homo sapiens, UniProt P27487)", "sequence (P27487 39-766 limits assumed)": "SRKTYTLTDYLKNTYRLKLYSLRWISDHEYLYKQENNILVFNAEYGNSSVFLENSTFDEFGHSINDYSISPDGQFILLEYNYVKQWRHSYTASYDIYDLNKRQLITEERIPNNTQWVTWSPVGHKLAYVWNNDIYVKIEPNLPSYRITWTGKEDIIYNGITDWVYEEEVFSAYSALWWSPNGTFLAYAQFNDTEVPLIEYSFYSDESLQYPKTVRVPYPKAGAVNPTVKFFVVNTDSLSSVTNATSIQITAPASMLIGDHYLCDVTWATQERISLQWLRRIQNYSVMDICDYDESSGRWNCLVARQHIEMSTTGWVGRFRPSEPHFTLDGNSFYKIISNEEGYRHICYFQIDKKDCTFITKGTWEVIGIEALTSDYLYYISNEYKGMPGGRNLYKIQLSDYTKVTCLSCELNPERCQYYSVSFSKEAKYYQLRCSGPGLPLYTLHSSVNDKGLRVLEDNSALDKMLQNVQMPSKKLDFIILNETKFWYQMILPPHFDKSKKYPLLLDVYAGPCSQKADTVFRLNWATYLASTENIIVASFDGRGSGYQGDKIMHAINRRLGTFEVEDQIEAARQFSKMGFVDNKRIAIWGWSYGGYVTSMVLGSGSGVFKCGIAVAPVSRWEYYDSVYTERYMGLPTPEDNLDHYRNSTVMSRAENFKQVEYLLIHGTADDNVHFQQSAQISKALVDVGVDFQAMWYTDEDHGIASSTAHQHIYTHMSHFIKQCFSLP", "assay": "Dipeptidyl peptidase IV activity inhibition test (human plasma, Gly-Pro-4-methylcoumaryl-7-amide)", "format": "biochemical", "details": "room temperature, 2 hours, pH 7.8", "experimental": "Experiment 1 [Dipeptidyl Peptidase IV Activity Inhibition Test]\nPlasma including dipeptidyl peptidase IV was prepared by centrifugation of blood collected from healthy human volunteers. […] The fluorescence intensity at which the reaction time of the vehicle addition was 0 minute was regarded as a blank value, and the specific fluorescence intensity was calculated by subtracting the blank value from the determined value. The inhibition rate (%) of the dipeptidyl peptidase IV activity was calculated from the resulting specific fluorescence intensity according to the following formula. The dimethyl sulfoxide solution containing the test compound at high concentration of 1000-fold was prepared and diluted with the above-mentioned buffer solution for use.\nInhibition rate (%)=A/B×100\n(A=fluorescence intensity of vehicle addition fluorescence intensity of the test compound addition)\n(B=fluorescence intensity of the vehicle addition)"}, "[3]": {"tested_on": "Zucker fatty rats", "assay": "Oral glucose tolerance test (OGTT) in Zucker fatty rats", "format": "in vivo", "experimental": "Experiment 3 [Effect of Dipeptidyl Peptidase IV Inhibitors on Oral Glucose Tolerance Test (OGTT) in Zucker Fatty Rats]\nAn OGTT in Zucker fatty rats was carried out referring to the method described in Diabetologia, 42, 1324-1331 (1999). In the test, male Zucker fatty rats, 10 weeks old (Charles River Japan, Inc.) were used after fasting for 16 hours. […] Before the begining of the test, blood was collected from the intraorbital vein using a heparin-treated tube for blood collection (manufactured by Drummond Scientific Co.). The test compounds were each dissolved in water for injection under Japanese Pharmacopoeia (manufactured by Hikari Pharmaceutical Co.) and orally administered in an amount of 2 ml/kg of the body weight. The same amount of water for injection under Japanese Pharmacopoeia only was administered to control group. […]\nPlasma glucose levels of the frozen samples (mg/dl) were determined using Glucose CII test Wako (manufactured by Wako Fine Chemical Industry Co.), and the area under the curve (min·mg/dl) was calculated from the plasma glucose levels which were determined from the blood collected for 60 minutes after the glucose administration. […]"}}, "note": "Where a name gives a salt, the structure may show the parent alone.", "data": [{"smiles": "CC[C@H](C)[C@H](N)C(=O)N1CCC[C@H]1C#N", "note": "[Compound A, 1-[(2S,3S)-2-amino-3-methylpentanoyl]-2-(S)-cyanopyrrolidine trifluoroacetate, reference compound]", "values": [{"measurement": "concentration at 5 min", "setting": "[1]", "value": 122, "unit": "ng/mL"}, {"measurement": "concentration at 10 min", "setting": "[1]", "value": 146, "unit": "ng/mL"}, {"measurement": "concentration at 15 min", "setting": "[1]", "value": 113, "unit": "ng/mL"}, {"measurement": "concentration at 30 min", "setting": "[1]", "value": 28, "unit": "ng/mL"}, {"measurement": "concentration at 1 h", "setting": "[1]", "value": 6, "unit": "ng/mL"}, {"measurement": "concentration at 2 h", "setting": "[1]", "value": 2, "unit": "ng/mL"}]}, {"smiles": "CC[C@H](C)[C@H](N)C(=O)N1C[C@@H](F)C[C@H]1C#N.Cl", "note": "[Example 1, (2S,4S)-1-[(2S,3S)-2-amino-3-methylpentanoyl]-2-cyano-4-fluoropyrrolidine Hydrochloride]", "values": [{"measurement": "IC50", "setting": "[2]", "value": 0.6, "unit": "nM"}, {"measurement": "concentration in plasma compared with Compound A (in words)", "setting": "[1]", "value": "higher concentration in plasma than Compound A"}, {"measurement": "concentration at 5 min", "setting": "[1]", "value": 157, "unit": "ng/mL"}, {"measurement": "concentration at 10 min", "setting": "[1]", "value": 372, "unit": "ng/mL"}, {"measurement": "concentration at 15 min", "setting": "[1]", "value": 348, "unit": "ng/mL"}, {"measurement": "concentration at 30 min", "setting": "[1]", "value": 195, "unit": "ng/mL"}, {"measurement": "concentration at 1 h", "setting": "[1]", "value": 24, "unit": "ng/mL"}, {"measurement": "concentration at 2 h", "setting": "[1]", "value": 5, "unit": "ng/mL"}, {"measurement": "elevation of the plasma glucose level (in words)", "setting": "[3]; OGTT, p<0.05", "value": "inhibited significantly the elevation of the plasma glucose level"}, {"measurement": "area under the curve of plasma glucose levels, mean ± S.E.", "setting": "[3]; oral, glucose 1 g/kg 30 minutes after compound, 60 minutes after glucose administration", "value": "13248 ± 619", "unit": "mg·min/dL"}]}, {"smiles": "CC(C)[C@H](N)C(=O)N1C[C@@H](F)C[C@H]1C#N", "note": "[Example 15, (2S,4S)-1-[(2S)-2-amino-3-methylbutanoyl]-2-cyano-4-fluoropyrrolidine Hydrochloride]", "values": [{"measurement": "IC50", "setting": "[2]", "value": 0.7, "unit": "nM"}]}, {"smiles": "CC(C)(C)[C@H](N)C(=O)N1C[C@@H](F)C[C@H]1C#N", "note": "[Example 17, (2S,4S)-1-[(2S)-2-amino-3,3-dimethylbutanoyl]-2-cyano-4-fluoropyrrolidine Hydrochloride]", "values": [{"measurement": "IC50", "setting": "[2]", "value": 0.6, "unit": "nM"}]}]}
